The results in this text go back to paper PMC8536575, “Acute effects of the imidacloprid metabolite desnitro-imidacloprid on human nACh receptors relevant for neuronal signaling” (Archives of Toxicology, 2021).

Assay [1] concerns nAChRs on LUHMES neurons. The assay is described as follows: Desensitization of nAChR agonist-evoked [Ca2+]i responses of LUHMES neurons. It counts as cell-based, human. How it is done: (§1) Ca^2+-imaging was performed using HT Functional Drug Screening System FDSS/µCELL (Hamamatsu Photonics) at nominal 37 °C. The FDSS/µCell system enables the indirect recording of changes of [Ca^2+]i via a Ca^2+-sensitive fluorescent dye. The fluorescence signal of a complete 384-well plate is acquired at once with a high-speed and high-sensitivity digital ImagEM X2 EM-CCD camera (Electron Multiplying Charge-Coupled Device, Hamamatsu Photonics), but with limited spatial resolution. Therefore, the software only determines the mean fluorescence signal of each well rather than of individual cells. For compound application, the integrated dispenser head with 384 pipette tips was used, which can add the test compound to all wells simultaneously. Cells were preincubated with Cal-520 AM (AAT Bioquest) at a concentration of 1 µM for 1 h at 37 °C. For recording, the medium was exchanged by a buffer solution containing [mM]: 135 NaCl, 5 KCl, 0.2 MgCl2, 2.5 CaCl2, 10 HEPES, and 10 D-glucose, pH 7.4. Test compound application was executed after obtaining a 1.5 min baseline recording. Where applicable, a second application was executed 4.5 min after the first application. The total recording never exceeded 8 min.
(§2) For the high-throughput Ca^2+-imaging data obtained in LUHMES cells, an offset correction using the FDSS software (version 3.2) was performed. Afterward, the data were exported and further analyzed with scripts written in R (version 3.6.3) (R Core Team [2020]). The concentration–response curves were fitted using a log-logistic model described by Ritz et al. ([2015]), utilizing the R package drc with its function drm() and LL2.2() with the following equation: f(x) = d/[1 + exp(b(log(x) − ẽ))] (Ritz et al. [2015]). The logarithm of the half-maximal effective concentration (logEC50) between 0 and the upper limit (d), which was set to 1, is represented by ẽ, x denotes the concentration, and b stands for the slope parameter (Ritz et al. [2015]). In cases with normalizations to responses induced by other compounds, the function LL2.3() was used with a variable upper limit (d; Ritz et al. [2015]). The same equation was used to determine the half-maximal inhibitory concentration (logIC50). Then the logEC50 and logIC50 values were converted into the pIC50 and pEC50 values, which are the negative logarithms to base 10.
Fig. 4 Desensitizing effects of DN-IMI and IMI-olefin on nAChRs. LUHMES neurons differentiated in 384-well plates were pretreated with various concentrations of DN-IMI or IMI-olefin for 4.5 min before different nAChR agonists were applied and [Ca^2+]i signals were recorded. […] Note the treatment scheme (upper right corner), illustrating the experimental design. […] Note the treatment scheme (upper right corner), illustrating the experimental design. Detailed data on n numbers are found in Table S6

In assay [2] the test system is nAChRs on LUHMES neurons. The assay is described as follows: High-throughput Ca2+-imaging of LUHMES neurons (agonist effect). It is filed as cell-based, human. How it is done: For Ca^2+-imaging, the cells were pre-differentiated for 48 h in cell culture flasks, detached and plated at a density of 20,000 cells and 30,000 cells per well on 0.1% PEI-coated 384-well and 96-well plates (Greiner Bio-One), respectively, for the Ca^2+-imaging. The cells were further differentiated for another 7 days. 50% of the medium was exchanged every 2–3 days.
as §1, §2

Take `NC1=NCCN1Cc1ccc(Cl)nc1` [DN-IMI, desnitro-imidacloprid]: in the assay with nAChRs on LUHMES neurons [1] (BMR10, LUHMES), the “concentrations inhibiting subsequent activation of nAChRs (desensitization)” value is on record as not below 10 nM. For the same molecule, the “times more potent than IMI (desensitization)” value in the assay on nAChRs on LUHMES neurons [1] (compared to effects of IMI in Loser et al. [2021a]) is given as ~ 70 times. The “BMC for receptor desensitization” value in the assay on nAChRs on LUHMES neurons [1] (for a 20% effect) is ~ 17 nM. Moreover, in the assay with nAChRs on LUHMES neurons [1] (pretreatment […], 3 µM nicotine), the “pIC50 for desensitization of the nicotine-evoked response” value came to 6.9. The “pEC50 of [Ca2+]i response (peak amplitude)” value with nAChRs on LUHMES neurons [2] (LUHMES neurons, absence of PNU, normalized to the maximal response stimulated by DN-IMI, tested ≤ 100 µM) is 6.6. Besides, the “increase of the maximal amplitude by PNU” value in the assay on nAChRs on LUHMES neurons [2] (PNU-120596 10 µM) is “around 40%”. Further, the “upper asymptote, % of the maximal response” value turned out to be 53% with nAChRs on LUHMES neurons [2] (absence of PNU) and 93% in the assay with nAChRs on LUHMES neurons [2] (presence of PNU (10 µM)). In addition, the “relative half maximum (turning point)” value in the assay with nAChRs on LUHMES neurons [2] (absence of PNU, normalized to maximal response to DN-IMI in presence of PNU) is on record as 6.8 ± 0.04 -log(M); in the assay with nAChRs on LUHMES neurons [2] (presence of PNU (10 µM)), 6.5 ± 0.03 -log(M). In addition, the “concentrations triggering [Ca2+]i responses” value in the assay with nAChRs on LUHMES neurons [2] (human neurons) is listed as not below 100 nM. Further, in the assay on nAChRs on LUHMES neurons [2] (in different systems ([Ca2+]i signaling and single nAChR data)), the “BMC for 20% response” value was 100 to 300 nM.
